Laboratory results from patent US4988814A, “Tertiary alkyl functionalized piperazine derivatives” (American Home Products Corp., priority 1989, dated 1991).

Assays:
[1] = molecular target: T1, 5-HT1A serotonin receptor (Rattus norvegicus, UniProt P19327); assay: 5-HT1A receptor binding, displacement of [^3 H] 8-OH DPAT (Hall et al.); details: for inhibition at 0.1 µM / inhibition at 1 µM: read-out: Affinity for 5HT1A Receptor % Inhibition; for IC50: read-out: Affinity for 5HT1A Receptor IC50
T1 construct: 44: 1685-1696, 1985; from tissue
T1 sequence (P19327 1-422): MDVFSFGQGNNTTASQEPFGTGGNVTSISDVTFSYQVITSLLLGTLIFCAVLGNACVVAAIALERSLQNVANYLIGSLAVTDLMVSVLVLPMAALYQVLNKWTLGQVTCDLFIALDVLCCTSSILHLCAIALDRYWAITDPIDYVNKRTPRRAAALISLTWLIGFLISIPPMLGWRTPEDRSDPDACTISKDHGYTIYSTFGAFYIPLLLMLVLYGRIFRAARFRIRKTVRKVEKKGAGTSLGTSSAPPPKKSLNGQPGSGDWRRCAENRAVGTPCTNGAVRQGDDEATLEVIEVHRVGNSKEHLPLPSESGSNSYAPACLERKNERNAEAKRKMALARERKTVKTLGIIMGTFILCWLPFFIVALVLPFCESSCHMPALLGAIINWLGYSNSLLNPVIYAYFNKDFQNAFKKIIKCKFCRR
Description: 8-OH DPAT (dipropylaminotetralin) from the 5-HT1A serotonin receptor by the procedure of Hall et al., J. Neurochem.

[2] = tested on: 5-HT1A receptor; details: prior art; cited from earlier work
[3] = molecular target: T2, D2 dopamine receptor (Rattus norvegicus, UniProt P61169); assay: D2 dopamine receptor binding, limbic brain tissue incubated with ^3 H-spiroperiodol; details: for inhibition at 1 µM: read-out: Affinity for D2 Receptor % Inhibition
T2 construct: from tissue; host or cells: homogenized limbic brain tissue
T2 sequence (P61169 whole entry): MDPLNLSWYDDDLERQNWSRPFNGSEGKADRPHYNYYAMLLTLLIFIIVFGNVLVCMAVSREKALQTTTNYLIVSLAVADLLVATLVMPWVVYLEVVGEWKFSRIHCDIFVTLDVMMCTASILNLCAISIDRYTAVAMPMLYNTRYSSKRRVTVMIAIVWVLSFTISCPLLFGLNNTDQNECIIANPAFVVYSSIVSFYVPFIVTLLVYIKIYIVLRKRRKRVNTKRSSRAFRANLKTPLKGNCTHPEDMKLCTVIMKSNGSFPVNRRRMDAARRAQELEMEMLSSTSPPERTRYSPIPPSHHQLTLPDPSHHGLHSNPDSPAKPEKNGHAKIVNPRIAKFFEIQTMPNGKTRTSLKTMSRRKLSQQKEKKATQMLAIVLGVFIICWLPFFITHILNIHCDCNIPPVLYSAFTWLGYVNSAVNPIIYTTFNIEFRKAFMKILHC
Description: The D2 dopamine receptor binding study was in accordance with a modification of the procedure of Field et al., Brain Res., 136, pp. 578-584 (1977) and Yamamura et al., eds., Neurotransmitter Receptor Binding, Raven Press, N.Y. (1978), wherein homogenized limbic brain tissue is incubated with ^3 H-spiroperiodol and various concentrations of test compounds, filtered and washed and shaken with Hydrofluoro scintillation cocktail (National Diagnostics) and counted in a Packard 460CD scintillation counter.

[4] = tested on: D2 receptor; details: prior art; cited from earlier work

Compound	inhibition at 0.1 µM [1]	inhibition at 1 µM [1]	further results
COc1ccccc1N1CCN(CCCCNC(=O)C(C)(C)C)CC1 [Example 2, N-[4-[4-(2-Methoxyphenyl)-1-piperazinyl]butyl]-2,2-dimethylpropanamide]	100%		
O=C1CC2(CCCC2)CC(=O)N1CCCCN1CCN(c2ncccn2)CC1 [buspirone, reference compound]			5-HT1A receptor affinity/binding (in words) [1]: potent affinity; 5-HT1A receptor affinity/activity (in words) [2]: selective activity
COc1ccccc1N1CCN(CCCOC(=O)C(C)(C)C)CC1 [Example 4, 2,2-Dimethylpropanoic acid 3-[4-(2-methoxyphenyl)-1-piperazinyl]propyl ester]		98%	inhibition at 1 µM [3]: 99%
CCCCN1C(=O)C2C(=O)N(CCCCN3CCN(c4ccccc4OC)CC3)C(=O)C(C1=O)C2(C)C [umespirone]			5-HT1A receptor affinity/activity (in words) [2]: high affinity; D2 receptor affinity (in words) [4]: high affinity
COc1ccccc1N1CCN(CCCCNC(=O)NC(C)(C)C)CC1 [Example 1, N-(1,1-Dimethylethyl)-N^1-[4-[4-(2-methoxyphenyl)-1-piperazinyl]butyl]urea]	91%		
COc1ccccc1N1CCN(CCOC(=O)C(C)(C)C)CC1 [Example 3, 2,2-Dimethylpropanoic acid 2-[4-(2-methoxyphenyl)-1-piperazinyl]ethyl ester]		86%	inhibition at 1 µM [3]: 89%
COc1ccccc1N1CCN(CC(C(=O)NC(C)(C)C)c2ccccc2)CC1 (centres unmarked) [Example 13, N-Tertiary-butyl 3-[4-(2-methoxyphenyl)piperazinyl]-2-phenylpropanamide]			IC50 ([3]; read-out: Affinity for D2 Receptor IC50): 1740 nM
COc1ccccc1N1CCN(CCNC(=O)NC2(C)CCCCC2)CC1 [Example 18, N-[2-[4-(2-Methoxyphenyl)-1-piperazinyl]ethyl]-N'-(1-methylcyclohexyl)urea]	85%		
CC(C)(C)C(=O)OCCCN1CCN(c2ccccc2Cl)CC1 [Example 5, 2,2-Dimethylpropanoic acid 3-[4-(2-chlorophenyl)-1-piperazinyl]propyl ester]		98%	inhibition at 1 µM [3]: 58%
COc1ccccc1N1CCN(CC(C(=O)OC(C)(C)C)c2ccccc2)CC1 (centres unmarked) [Example 12, Tertiary-butyl 3-[1-[4-(2-methoxyphenyl)piperazinyl]]-2-phenylpropanoate]	86%	98%	IC50 [1]: 11.8 nM
COc1ccccc1N1CCN(CCNC(=O)C2(C)CCCCC2)CC1 [Example 15, N-[2-[4-(2-Methoxyphenyl)-1-piperazinyl)ethyl]-1-methylcyclohexanecarboxamide]	98%		

The next lines start with results.

inhibition at 0.1 µM [1]	inhibition at 1 µM [1]	Compound	further results
67%		CC1(C(=O)NCCN2CCN(c3ncccn3)CC2)CCCCC1 [Example 19, N-2-(4-(2-Pyrimidinyl)-1-piperazinyl)ethyl-1-methylcyclohexylcarboxamide]	
27%	78%	COc1ccccc1N1CCN(CC(OC(=O)C(C)(C)C)c2ccccc2)CC1 (centres unmarked) [Example 23, 2,2-Dimethylpropanoic acid 2-(4-(2-methoxyphenyl)-piperazin-1-yl)-1-phenylethyl ester]	IC50 [1]: 270 nM
48%	96%	COc1ccccc1N1CCN(CC(C(=O)NNC(C)(C)C)c2ccccc2)CC1 (centres unmarked) [Example 26, N-Tert-butyl-3-[1-[4-(2-methoxy)phenyl]piperazinyl]-2-phenyl-propionhydrazide]	IC50 [1]: 118 nM
100%		COc1ccccc1N1CCN(C[C@@H](C)NC(=O)C2(C)CCCCC2)CC1 [Example 20, (R)-N-[2-[4-(2-Methoxyphenyl)-1-piperazinyl]-1-methylethyl]-1-methylcyclohexane carboxamide]	
73%	97%	COc1ccccc1N1CCN(CC(OC(=O)NC(C)(C)C)c2ccccc2)CC1 (centres unmarked) [Example 24]	IC50 [1]: 20 nM
